The subject of series [1] is 3T3-L1 cells. Put plainly: Oil-Red-O staining and quantification, berberine with amentoflavone in 3T3-L1 (Example 6). The class given is cell-based, mouse. Particulars: Mus musculus. How it is done:
(§1) Oil-Red-O staining and quantification: Oil-Red-O Staining and its quantification were performed as previously reported. Briefly, medium was removed and cells were washed with PBS twice, fixed with 3.7% formalin at room temperature for 30 min, then rinsed with pure water, added 60% isopropanol and incubated for 5 minutes, then moved out isopropanol and stained cells with diluted Oil-Red-O solution (Oil-Red-O store solution (3 mg/ml in pure isopropanol): water=3:2) at room temperature for 10 min. Then the diluted Oil-Red-O solution was removed and cells were washed 3 times with pure water. After staining, the cells were washed twice with 70% ethanol to remove excess stain. Stained oil droplets in the cells were dissolved in isopropanol containing 4% Nonidet-P40 (Fisher Scientific, Pittsburgh, Pa., USA) shaking in 37° C. at speed 100 rpm for 1 hour, and OD values were measured at an absorbance of 490 nm and then normalized with control group.

In series [2] the test system is low density lipoprotein receptor (LDLR). Put plainly: Real-time RT-PCR, LDLR mRNA in 3T3-L1. Particulars: 8 days. Format: cell-based, mouse. The text has this:
(§2) Realtime RT-PCR: Real-time reverse transcriptase polymerase chain reaction (RT-PCR) analysis was used to measure mRNA expression of genes SREBP-1, PPARγ, C/EBPα, low density lipoprotein receptor (LDLR), Adiponectin, and fatty acid synthase (FAS) under the control of β-actin. Briefly, total RNA was isolated from 3T3-L1 cells following treatment for 8 days with Trizol reagent (Invitrogen, Carlsbad, Calif., USA) according to the manufacturer's instruction. RNA was quantified using absorption of light at 260 nm, and sample purity was checked by OD 260 nm/280 nm. 0.8 μg of total RNA from each sample was used for reverse transcription reaction using the TaqMan Reverse Transcription Reagents (Applied Biosystems, Foster City, Calif., USA) according to the manufacturers' instructions. PCR was done using the SYBR green Master Mix (Applied Biosystems, Foster City, Calif., USA) according to the manufacturers' instructions. The temperature cycling conditions of amplification were as follows: an initial step of denaturation at 95° C. for 10 min, 40 cycles of denaturation at 95° C. for 30 s, annealing at 55° C. for 30 s, and elongation at 72° C. for 30 s. Realtime RT-PCR was performed using Mx3000P Realtime Thermocyclers (Statagene, La Jolla, Calif., USA). The relative mRNA levels of these genes were calculated by 2-delta delta CT method and normalized with control groups.
In general terms: In qPCR the cycle at which signal appears reflects the starting amount.

For series [3], the system named is 3T3-L1 cells. Put plainly: Oil-Red-O staining and quantification, clozapine/risperidone induced adipogenesis in 3T3-L1 (Example 2). The class given is cell-based, mouse. Particulars: 8 days. As to the method:
Detailed protocol was described as our previous report (Hu et al., Phytomedicine (2009) 16(9):864-873).
as §1, with “reported (Liu et al., Sinica (2004) 25:1052-1057).” for “reported.”, “water. Images were obtained using an Olympus IX70 inverted microscope equipped for phase-contrast microscopy (Olympus, Tokyo, Japan).” for “water.”

The test system of series [4] is PPARγ. Briefly: Real-time RT-PCR, PPARγ mRNA in 3T3-L1. Format: cell-based, mouse. Particulars: 15 μM clozapine, 8 days.
Description: as §2

Series [5] is described as follows: MTT assay, 3T3-L1 viability during differentiation with clozapine, risperidone, berberine (Example 2). The class given is cell-based, mouse. Particulars: mouse, 3T3-L1 cells during differentiation induction; read-out: reduction of cell viability. As to the method: (§3) Cell culture and drug treatment: 3T3-L1 cells (American Type Culture Collection, Manassas, Va., USA) were cultured at 37° C. in a humidified 5% CO2 atmosphere and grown in a DMEM (Sigma-Aldrich, St. Louis, Mo. USA) supplemented with 10% Fetal Bovine Serum (FBS, Atlanta Biologicals Corp., Lawrenceville, Ga., USA), 100 units/ml penicillin and 100 μg/ml streptomycin. Differentiation was induced by addition of 167 nM insulin, 520 μM isobutylmethylxanthine (IBMX), and 1 μM dexamethasone for 2 days and then only with 167 nM insulin for 6 days. Detailed protocol was described as our previous report (Hu et al., Phytomedicine (2009) 16(9):864-873).
(§4) Medium was removed after differentiation and treatment for 8 days, MTT (Methylthiazolyldiphenyl—tetrazolium bromide 0.5 mg/ml, 50 μl/well) was added.
A general note: Formazan colour is commonly taken as a measure of viable cells.

The test system of series [6] is C/EBPα. Put plainly: Real-time RT-PCR, C/EBPα mRNA in 3T3-L1. Format: cell-based, mouse. Particulars: 8 days.
Description: as §2

The subject of series [7] is SREBP-1. Put plainly: Real-time RT-PCR, SREBP-1 mRNA in 3T3-L1. The class given is cell-based, mouse. Particulars: 8 days.
Description: as §2

In series [8] the test system is Adiponectin. Briefly: Real-time RT-PCR, Adiponectin mRNA in 3T3-L1. The class given is cell-based, mouse. Particulars: 8 days.
Description: as §2

The conditions of series [9]: in vivo; cited from earlier work.
For series [10] the following is noted: over 10 weeks of treatment; cited from earlier work.
For series [11], the system named is 3T3-L1 cells. Briefly: MTT assay, 3T3-L1 viability during differentiation with clozapine, risperidone, berberine (Example 2). Particulars: day 8 of differentiation. The class given is cell-based, mouse. How it is done: as §3, §4
The subject of series [12] is fatty acid synthase (FAS). Put plainly: Real-time RT-PCR, FAS mRNA in 3T3-L1. The class given is cell-based, mouse. Particulars: 50 μM risperidone, 8 days.
Description: as §2

Molecules are shown by their SMILES. Where two headings read alike, the source gives them in different places.

For `O=c1cc(-c2ccc(O)c(-c3c(O)cc(O)c4c(=O)cc(-c5ccc(O)cc5)oc34)c2)oc2cc(O)cc(O)c12` [amentoflavone, reference compound], the inhibition at 25 µM was 10.1% in series [1] (3T3-L1, read-out: enhancement of the inhibitory effects of berberine, 25 μM amentoflavone added to 4 μM berberine, with 15 μM clozapine) and 7.8% in [1] (3T3-L1, read-out: enhancement of the inhibitory effects of berberine, 25 μM amentoflavone added to 8 μM berberine, with 15 μM clozapine).

Take `CN1CCN(C2=Nc3cc(Cl)ccc3Nc3ccccc32)CC1` [clozapine, reference compound]: the “increase of LDLR mRNA expression vs control group” value in [2] (15 μM clozapine) was 63.1%. For the same compound, the “induced adipogenesis vs vehicle treated group” value in [3] (15 μM clozapine) came out at 37.4%. In addition, in series [3] (30 μM clozapine), the “induced adipogenesis vs vehicle treated group” value is recorded as 25.2%. In series [4], the “increase of PPARγ mRNA expression vs control group” value came to 68.3%. Moreover, in series [5], the cytotoxicity at 8 days, 15 μM worked out at 6.2% and the cytotoxicity at 8 days, 30 μM worked out at 12.5%. For the same compound, the “increase of C/EBPα mRNA expression vs control group” value in series [6] (15 μM clozapine) came out at 45.7%. In [7] (15 μM clozapine), the “increase of SREBP-1 mRNA expression vs control group” value came to 27.6%. Further, the “increase of adiponectin mRNA expression vs control group” value in [8] (15 μM clozapine) is reported as 45.5%.

As to `CN(C)C(=N)N=C(N)N` [metformin], the “effect in antipsychotic-induced weight gain” value (shortened to “effect”) in series [9] is given as “no statistically significant effect”.

In the case of `CCCCCCCCCCC[C@@H](C[C@@H]1OC(=O)[C@H]1CCCCCC)OC(=O)[C@H](CC(C)C)NC=O` [orlistat], the “effect” value in series [9] is given as “no statistically significant effect”.

Take `Cc1nc2n(c(=O)c1CCN1CCC(c3noc4cc(F)ccc34)CC1)CCCC2` [risperidone, reference compound]: in series [2] (50 μM risperidone), the “increase of LDLR mRNA expression vs control group” value amounted to 61.5%. Besides, the “induced adipogenesis vs vehicle treated group” value in series [3] (25 μM risperidone) came out at 14.1%; in series [3] (50 μM risperidone), 26.5%. In addition, the weight gain in [10] is given as roughly 2 kg. The “enhancement of cell viability” value is listed as 14% in series [11] (printed 'for 15 μM clozapine treatment') and 16.8% in series [11] (printed 'for 30 μM clozapine treatment'). The “increase of C/EBPα mRNA expression vs control group” value in series [6] (50 μM risperidone) came out at 48.8%. In addition, in series [7] (50 μM risperidone), the “increase of SREBP-1 mRNA expression vs control group” value came to 133.5%. Also, in series [8] (50 μM risperidone), the “increase of adiponectin mRNA expression vs control group” value stood at 63.8%. The “increase of FAS mRNA expression vs control group” value in [12] is 34.4%.

Consider `CC(C)CC(N(C)C)C1(c2ccc(Cl)cc2)CCC1` (stereo not drawn) [sibutramine], for which the “effect” value in [9] is given as “no statistically significant effect”.

The values are drawn from patent US20110281852A1 (priority 2010, published 2011).
